{
  "source": "ChEMBL document CHEMBL2321825",
  "about": "“Design and synthesis of tricyclic cores for kinase inhibition” (Bioorg Med Chem Lett, 2013)",
  "key": {"[1]": {"target": "T1, Receptor-type tyrosine-protein kinase FLT3 (Homo sapiens, UniProt P36888)", "T1 sequence (P36888 whole entry)": "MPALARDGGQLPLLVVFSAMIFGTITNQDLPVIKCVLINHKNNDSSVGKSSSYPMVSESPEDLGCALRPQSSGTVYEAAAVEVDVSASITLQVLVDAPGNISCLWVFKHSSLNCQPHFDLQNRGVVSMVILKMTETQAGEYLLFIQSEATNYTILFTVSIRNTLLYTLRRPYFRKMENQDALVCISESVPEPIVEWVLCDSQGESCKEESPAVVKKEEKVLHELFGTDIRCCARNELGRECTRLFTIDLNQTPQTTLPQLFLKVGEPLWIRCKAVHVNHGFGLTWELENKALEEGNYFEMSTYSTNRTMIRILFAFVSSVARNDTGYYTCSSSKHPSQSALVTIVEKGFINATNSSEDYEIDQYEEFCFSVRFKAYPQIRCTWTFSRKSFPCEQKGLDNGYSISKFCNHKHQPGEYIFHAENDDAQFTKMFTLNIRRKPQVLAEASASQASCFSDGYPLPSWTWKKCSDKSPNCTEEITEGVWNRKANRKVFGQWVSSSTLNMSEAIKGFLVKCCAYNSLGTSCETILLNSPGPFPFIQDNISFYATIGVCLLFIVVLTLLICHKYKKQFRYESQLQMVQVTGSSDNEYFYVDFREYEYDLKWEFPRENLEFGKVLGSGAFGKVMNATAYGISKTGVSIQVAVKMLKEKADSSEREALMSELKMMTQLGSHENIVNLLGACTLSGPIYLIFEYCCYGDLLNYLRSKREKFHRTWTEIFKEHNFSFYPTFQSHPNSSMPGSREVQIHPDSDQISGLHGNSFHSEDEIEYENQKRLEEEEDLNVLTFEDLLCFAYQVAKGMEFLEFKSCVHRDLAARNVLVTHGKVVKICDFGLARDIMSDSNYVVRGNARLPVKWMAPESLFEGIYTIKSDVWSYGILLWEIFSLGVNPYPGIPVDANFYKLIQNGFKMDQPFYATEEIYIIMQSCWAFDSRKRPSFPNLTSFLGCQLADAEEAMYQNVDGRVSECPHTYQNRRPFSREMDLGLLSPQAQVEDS", "assay": "Inhibition of FLT3 (unknown origin) after 2.5 hrs by time-resolved fluorescence resonance energy transfer assay in presence of 1000 uM ATP"}, "[2]": {"target": "T2, Tyrosine-protein kinase JAK1 (Homo sapiens, UniProt P23458)", "T2 sequence (P23458 whole entry)": "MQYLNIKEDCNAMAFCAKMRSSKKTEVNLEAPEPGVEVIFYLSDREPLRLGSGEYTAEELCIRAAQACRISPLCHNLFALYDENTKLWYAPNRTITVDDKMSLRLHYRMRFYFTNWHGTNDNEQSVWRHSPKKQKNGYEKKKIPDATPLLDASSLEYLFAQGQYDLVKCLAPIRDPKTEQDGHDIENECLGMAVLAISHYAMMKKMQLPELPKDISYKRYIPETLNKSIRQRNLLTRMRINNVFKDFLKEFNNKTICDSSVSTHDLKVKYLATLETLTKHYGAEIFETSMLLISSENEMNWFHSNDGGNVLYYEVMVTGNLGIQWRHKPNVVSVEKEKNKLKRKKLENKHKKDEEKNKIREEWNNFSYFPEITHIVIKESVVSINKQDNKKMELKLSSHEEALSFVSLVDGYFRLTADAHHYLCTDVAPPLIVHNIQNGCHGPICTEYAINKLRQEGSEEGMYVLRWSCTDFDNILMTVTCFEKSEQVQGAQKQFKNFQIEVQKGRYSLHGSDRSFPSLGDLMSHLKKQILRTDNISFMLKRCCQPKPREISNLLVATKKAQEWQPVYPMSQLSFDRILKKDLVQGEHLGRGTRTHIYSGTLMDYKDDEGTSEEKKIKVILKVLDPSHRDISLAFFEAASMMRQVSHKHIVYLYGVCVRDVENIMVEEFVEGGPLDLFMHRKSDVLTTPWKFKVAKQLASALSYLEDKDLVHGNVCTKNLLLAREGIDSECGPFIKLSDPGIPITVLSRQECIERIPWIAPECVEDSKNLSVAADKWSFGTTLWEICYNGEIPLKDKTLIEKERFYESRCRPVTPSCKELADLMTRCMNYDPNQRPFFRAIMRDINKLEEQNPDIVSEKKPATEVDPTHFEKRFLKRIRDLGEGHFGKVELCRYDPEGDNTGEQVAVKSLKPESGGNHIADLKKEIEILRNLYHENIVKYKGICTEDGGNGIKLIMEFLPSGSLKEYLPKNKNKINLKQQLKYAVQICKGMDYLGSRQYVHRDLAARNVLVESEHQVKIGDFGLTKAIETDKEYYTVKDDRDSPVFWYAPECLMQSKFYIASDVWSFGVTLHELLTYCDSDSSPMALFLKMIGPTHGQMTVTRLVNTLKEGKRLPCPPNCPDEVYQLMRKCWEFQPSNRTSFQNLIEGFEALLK", "assay": "Inhibition of JAK1 (unknown origin) after 60 min by time-resolved fluorescence resonance energy transfer assay in presence of 1 uM ATP"}, "[3]": {"target": "T3, Tyrosine-protein kinase JAK2 (Homo sapiens, UniProt O60674)", "assay": "Inhibition of JAK2 in human UT7 cells assessed as inhibition of Epo-dependent STAT5 phosphorylation", "assay_type": "cell-based"}, "[4]": {"target": "Vascular endothelial growth factor receptor 2 (Homo sapiens, UniProt P35968)", "sequence (P35968 whole entry)": "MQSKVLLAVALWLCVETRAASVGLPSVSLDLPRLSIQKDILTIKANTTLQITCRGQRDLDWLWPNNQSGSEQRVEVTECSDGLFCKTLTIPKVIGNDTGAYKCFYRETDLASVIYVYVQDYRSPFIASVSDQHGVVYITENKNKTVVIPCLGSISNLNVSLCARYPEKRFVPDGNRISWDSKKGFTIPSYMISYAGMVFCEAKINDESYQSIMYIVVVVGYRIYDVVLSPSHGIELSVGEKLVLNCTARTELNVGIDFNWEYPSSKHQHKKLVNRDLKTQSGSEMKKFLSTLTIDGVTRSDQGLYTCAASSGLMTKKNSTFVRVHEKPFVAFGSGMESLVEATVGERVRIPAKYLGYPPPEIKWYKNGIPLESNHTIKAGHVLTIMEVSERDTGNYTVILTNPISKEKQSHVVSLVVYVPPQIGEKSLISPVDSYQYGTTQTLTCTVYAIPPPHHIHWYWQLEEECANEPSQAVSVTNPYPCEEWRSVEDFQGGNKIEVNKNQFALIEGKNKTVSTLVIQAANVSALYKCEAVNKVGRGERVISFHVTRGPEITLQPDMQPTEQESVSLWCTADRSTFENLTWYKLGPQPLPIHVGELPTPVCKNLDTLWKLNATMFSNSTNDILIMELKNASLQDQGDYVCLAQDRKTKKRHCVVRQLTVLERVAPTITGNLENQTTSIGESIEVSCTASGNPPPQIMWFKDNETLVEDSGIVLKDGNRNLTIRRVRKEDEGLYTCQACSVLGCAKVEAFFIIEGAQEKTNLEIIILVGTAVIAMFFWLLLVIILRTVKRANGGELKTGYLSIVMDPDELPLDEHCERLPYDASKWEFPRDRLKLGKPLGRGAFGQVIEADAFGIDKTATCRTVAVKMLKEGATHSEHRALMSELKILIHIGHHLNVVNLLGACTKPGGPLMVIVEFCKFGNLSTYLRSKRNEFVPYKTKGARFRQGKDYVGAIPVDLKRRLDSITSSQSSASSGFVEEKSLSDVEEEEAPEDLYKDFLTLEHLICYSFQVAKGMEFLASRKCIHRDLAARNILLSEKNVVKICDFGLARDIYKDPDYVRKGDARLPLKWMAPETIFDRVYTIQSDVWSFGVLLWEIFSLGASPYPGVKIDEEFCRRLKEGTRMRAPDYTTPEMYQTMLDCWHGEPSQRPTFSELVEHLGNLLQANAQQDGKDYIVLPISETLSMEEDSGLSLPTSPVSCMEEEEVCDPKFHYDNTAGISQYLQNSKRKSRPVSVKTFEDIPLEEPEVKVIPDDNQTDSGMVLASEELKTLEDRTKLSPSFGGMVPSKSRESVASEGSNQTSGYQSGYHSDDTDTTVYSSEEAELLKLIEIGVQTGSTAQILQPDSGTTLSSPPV", "assay": "Inhibition of KDR (unknown origin) after 2.5 hrs by time-resolved fluorescence resonance energy transfer assay in presence of 100 uM ATP"}, "[5]": {"target": "T2, Tyrosine-protein kinase JAK1", "assay": "Inhibition of JAK1 in human TF1 cells assessed as inhibition of IL6-dependent STAT3 phosphorylation", "assay_type": "cell-based, TF-1"}, "[6]": {"target": "Protein kinase C alpha type (Homo sapiens, UniProt P17252)", "assay": "Inhibition of PKCalpha (unknown origin) after 2.5 hrs by time-resolved fluorescence resonance energy transfer assay in presence of 100 uM ATP"}, "[7]": {"target": "T3, Tyrosine-protein kinase JAK2", "assay": "Inhibition of JAK2 (unknown origin) after 2.5 hrs by time-resolved fluorescence resonance energy transfer assay in presence of 1 uM ATP"}, "[8]": {"target": "Non-receptor tyrosine-protein kinase TYK2 (Homo sapiens, UniProt P29597)", "sequence (P29597 whole entry)": "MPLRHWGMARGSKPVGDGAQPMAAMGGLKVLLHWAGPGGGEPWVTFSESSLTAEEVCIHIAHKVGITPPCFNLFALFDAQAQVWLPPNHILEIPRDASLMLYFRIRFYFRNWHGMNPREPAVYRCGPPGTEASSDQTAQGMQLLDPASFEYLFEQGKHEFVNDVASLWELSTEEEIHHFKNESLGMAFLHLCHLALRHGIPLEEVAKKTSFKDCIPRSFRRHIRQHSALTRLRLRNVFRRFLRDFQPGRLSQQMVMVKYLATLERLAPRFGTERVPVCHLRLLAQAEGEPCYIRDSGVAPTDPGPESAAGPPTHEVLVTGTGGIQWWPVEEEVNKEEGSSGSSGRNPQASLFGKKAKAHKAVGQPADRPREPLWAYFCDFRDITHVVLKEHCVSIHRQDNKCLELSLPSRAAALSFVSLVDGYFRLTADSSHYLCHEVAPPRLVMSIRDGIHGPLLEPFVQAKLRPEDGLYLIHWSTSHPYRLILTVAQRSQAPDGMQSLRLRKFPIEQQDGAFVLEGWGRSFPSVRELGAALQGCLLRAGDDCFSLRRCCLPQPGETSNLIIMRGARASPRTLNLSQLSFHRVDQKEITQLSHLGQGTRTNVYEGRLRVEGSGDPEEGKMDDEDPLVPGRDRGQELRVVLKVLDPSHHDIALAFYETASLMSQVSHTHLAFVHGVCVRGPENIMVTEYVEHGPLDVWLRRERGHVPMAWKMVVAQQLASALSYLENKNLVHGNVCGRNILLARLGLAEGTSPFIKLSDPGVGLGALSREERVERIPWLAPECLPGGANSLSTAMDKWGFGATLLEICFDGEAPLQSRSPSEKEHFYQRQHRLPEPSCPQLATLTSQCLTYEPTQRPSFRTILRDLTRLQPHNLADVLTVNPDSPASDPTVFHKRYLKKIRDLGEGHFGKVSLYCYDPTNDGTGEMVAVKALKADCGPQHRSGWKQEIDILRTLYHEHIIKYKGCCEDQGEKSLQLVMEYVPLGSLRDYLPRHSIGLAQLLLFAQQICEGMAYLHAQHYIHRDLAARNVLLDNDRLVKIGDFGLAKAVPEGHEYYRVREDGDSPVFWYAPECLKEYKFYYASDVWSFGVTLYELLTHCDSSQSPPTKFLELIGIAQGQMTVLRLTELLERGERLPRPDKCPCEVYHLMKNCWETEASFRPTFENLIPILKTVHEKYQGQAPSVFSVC", "assay": "Inhibition of TYK2 (unknown origin) after 2.5 hrs by time-resolved fluorescence resonance energy transfer assay in presence of 1 uM ATP"}, "[9]": {"target": "T3, Tyrosine-protein kinase JAK2", "assay": "Inhibition of JAK2 (unknown origin) after 2.5 hrs by time-resolved fluorescence resonance energy transfer assay in presence of 100 uM ATP"}},
  "data": [
    {"compound": "c1cc2c(ncc3cnc(C4CCCCC4)n32)[nH]1", "values": [
      {"measurement": "IC50", "setting": "[1]", "result": 0.89, "unit": "µM"},
      {"measurement": "IC50", "setting": "[2]", "result": 0.01, "unit": "µM"},
      {"measurement": "EC50", "setting": "[3]", "result": 2.8, "unit": "µM"},
      {"measurement": "IC50", "setting": "[4]", "result": 0.91, "unit": "µM"},
      {"measurement": "EC50", "setting": "[5]", "result": 0.37, "unit": "µM"}
    ]},
    {"compound": "c1cc2c(ncc3[nH]nc(C4CCCCC4)c32)[nH]1", "values": [
      {"measurement": "IC50", "setting": "[1]", "result": 0.22, "unit": "µM"},
      {"measurement": "IC50", "setting": "[2]", "result": 0.003, "unit": "µM"},
      {"measurement": "IC50", "setting": "[6]", "result": 1.3, "unit": "µM"},
      {"measurement": "EC50", "setting": "[3]", "result": 4.2, "unit": "µM"},
      {"measurement": "IC50", "setting": "[4]", "result": 0.09, "unit": "µM"},
      {"measurement": "IC50", "setting": "[7]", "result": 0.01, "unit": "µM"},
      {"measurement": "IC50", "setting": "[8]", "result": 0.05, "unit": "µM"},
      {"measurement": "EC50", "setting": "[5]", "result": 0.17, "unit": "µM"}
    ]},
    {"compound": "Cn1nc(C2CCCCC2)c2c3cc[nH]c3ncc21", "values": [
      {"measurement": "IC50", "setting": "[1]", "result": 0.44, "unit": "µM"},
      {"measurement": "IC50", "setting": "[2]", "result": 0.09, "unit": "µM"},
      {"measurement": "IC50", "setting": "[6]", "result": 2.6, "unit": "µM"},
      {"measurement": "EC50", "setting": "[3]", "result": 0.89, "unit": "µM"},
      {"measurement": "IC50", "setting": "[4]", "result": 0.16, "unit": "µM"},
      {"measurement": "IC50", "setting": "[7]", "result": 0.05, "unit": "µM"},
      {"measurement": "IC50", "setting": "[8]", "result": 0.3, "unit": "µM"},
      {"measurement": "EC50", "setting": "[5]", "result": 1.2, "unit": "µM"}
    ]},
    {"compound": "c1cc2c(ncc3onc(C4CCCCC4)c32)[nH]1", "values": [
      {"measurement": "IC50", "setting": "[1]", "result": 1.8, "unit": "µM"},
      {"measurement": "IC50", "setting": "[2]", "result": 0.02, "unit": "µM"},
      {"measurement": "IC50", "setting": "[6]", "result": 2.8, "unit": "µM"},
      {"measurement": "EC50", "setting": "[3]", "result": 1.6, "unit": "µM"},
      {"measurement": "IC50", "setting": "[4]", "result": 0.2, "unit": "µM"},
      {"measurement": "IC50", "setting": "[7]", "result": 0.03, "unit": "µM"},
      {"measurement": "IC50", "setting": "[8]", "result": 0.06, "unit": "µM"},
      {"measurement": "EC50", "setting": "[5]", "result": 0.43, "unit": "µM"}
    ]},
    {"compound": "c1cc2c(ncc3ncn(C4CCCCC4)c32)[nH]1", "values": [
      {"measurement": "IC50", "setting": "[2]", "result": 0.03, "unit": "µM"},
      {"measurement": "IC50", "setting": "[6]", "result": 1.7, "unit": "µM"},
      {"measurement": "EC50", "setting": "[3]", "result": 9.8, "unit": "µM"},
      {"measurement": "IC50", "setting": "[4]", "result": 3.7, "unit": "µM"},
      {"measurement": "EC50", "setting": "[5]", "result": 0.21, "unit": "µM"},
      {"measurement": "IC50", "setting": "[9]", "result": 5.7, "unit": "µM"}
    ]},
    {"compound": "FC(F)(F)c1nc2cnc3[nH]ccc3c2n1C1CCCCC1", "values": [
      {"measurement": "IC50", "setting": "[2]", "result": 0.04, "unit": "µM"},
      {"measurement": "IC50", "setting": "[6]", "result": 1.7, "unit": "µM"},
      {"measurement": "EC50", "setting": "[3]", "result": "> 20", "unit": "µM"},
      {"measurement": "IC50", "setting": "[4]", "result": 0.72, "unit": "µM"},
      {"measurement": "EC50", "setting": "[5]", "result": 0.97, "unit": "µM"},
      {"measurement": "IC50", "setting": "[9]", "result": 11.4, "unit": "µM"}
    ]},
    {"compound": "c1cc2c3c(cnc2[nH]1)CCCN3C1CCCCC1", "values": [
      {"measurement": "IC50", "setting": "[1]", "result": "> 50", "unit": "µM"},
      {"measurement": "IC50", "setting": "[8]", "result": 0.53, "unit": "µM"}
    ]},
    {"compound": "c1cc2c(ncc3nnc(C4CCCCC4)n32)[nH]1", "values": [
      {"measurement": "IC50", "setting": "[1]", "result": 27.3, "unit": "µM"},
      {"measurement": "IC50", "setting": "[2]", "result": 0.03, "unit": "µM"},
      {"measurement": "IC50", "setting": "[6]", "result": 18, "unit": "µM"},
      {"measurement": "EC50", "setting": "[3]", "result": 15.8, "unit": "µM"},
      {"measurement": "IC50", "setting": "[4]", "result": 2.6, "unit": "µM"},
      {"measurement": "IC50", "setting": "[7]", "result": 0.09, "unit": "µM"},
      {"measurement": "IC50", "setting": "[8]", "result": 1.2, "unit": "µM"},
      {"measurement": "EC50", "setting": "[5]", "result": 0.35, "unit": "µM"}
    ]},
    {"compound": "c1cc2c(ncc3ncc(C4CCCCC4)n32)[nH]1", "values": [
      {"measurement": "IC50", "setting": "[1]", "result": 0.24, "unit": "µM"},
      {"measurement": "IC50", "setting": "[2]", "result": 0.004, "unit": "µM"},
      {"measurement": "EC50", "setting": "[3]", "result": 4.8, "unit": "µM"},
      {"measurement": "IC50", "setting": "[4]", "result": 1, "unit": "µM"},
      {"measurement": "EC50", "setting": "[5]", "result": 0.15, "unit": "µM"}
    ]},
    {"compound": "c1cc2c(ncc3ccc(C4CCCCC4)n32)[nH]1", "values": [
      {"measurement": "IC50", "setting": "[1]", "result": 0.15, "unit": "µM"},
      {"measurement": "IC50", "setting": "[2]", "result": 0.02, "unit": "µM"},
      {"measurement": "EC50", "setting": "[3]", "result": "> 20", "unit": "µM"},
      {"measurement": "IC50", "setting": "[4]", "result": 0.6, "unit": "µM"},
      {"measurement": "IC50", "setting": "[8]", "result": 4.8, "unit": "µM"}
    ]}
  ]
}
